Measured values reported in patent publication EP0620225B1, “Cephalosporin derivatives” (Basilea Pharmaceutica AG, priority 1993, dated 1994).
≈ marks a conversion by molar mass, not a printed value.

Legend:
Acinetobacter sp.51-156 = test: Antibacterial spectrum (MIC), agar dilution; format: cell-based; details: SP.51156, read-out: MIC
Protocol: (§1) In vitro activity was determined by minimum inhibitory concentration in a microorganism spectum by the agar dilution method in Mueller Hinton agar.

C.freundii 43 = test: Antibacterial spectrum (MIC), agar dilution; format: cell-based; details: Citrobacter freundii, read-out: MIC
Protocol: as §1

C.freundii 902 = test: Antibacterial spectrum (MIC), agar dilution; format: cell-based; details: Citrobacter freundii, read-out: MIC
Protocol: as §1

E.cloacae 908R = test: Antibacterial spectrum (MIC), agar dilution; format: cell-based; details: Enterobacter cloacae, read-out: MIC
Protocol: as §1

E.cloacae 908SSi = test: Antibacterial spectrum (MIC), agar dilution; format: cell-based; details: Enterobacter cloacae, read-out: MIC
Protocol: as §1

E.coli 25922 = test: Antibacterial spectrum (MIC), agar dilution; format: cell-based; details: Escherichia coli, read-out: MIC
Protocol: as §1

E.faecalis 6 = test: Antibacterial spectrum (MIC), agar dilution; format: cell-based; details: Enterococcus faecalis, read-out: MIC
Protocol: as §1

H.influenzae 1 = test: Antibacterial spectrum (MIC), agar dilution; format: cell-based; details: Haemophilus influenzae, read-out: MIC
Protocol: as §1

K.pneumoniae 418 = test: Antibacterial spectrum (MIC), agar dilution; format: cell-based; details: Klebsiella pneumoniae, read-out: MIC
Protocol: as §1

L.monocytogenes BK23 = test: Antibacterial spectrum (MIC), agar dilution; format: cell-based; details: Listeria monocytogenes, read-out: MIC
Protocol: as §1

M.catarrhalis RA21 = test: Antibacterial spectrum (MIC), agar dilution; format: cell-based; details: Moraxella catarrhalis, read-out: MIC
Protocol: as §1

M.morganii 6H-137 = test: Antibacterial spectrum (MIC), agar dilution; format: cell-based; details: Morganella morganii, 6H137, read-out: MIC
Protocol: as §1

N.meningitidis 69480 = test: Antibacterial spectrum (MIC), agar dilution; format: cell-based; details: Neisseria meningitidis, read-out: MIC
Protocol: as §1

P.aeruginosa 27853 = test: Antibacterial spectrum (MIC), agar dilution; format: cell-based; details: Pseudomonas aeruginosa, read-out: MIC
Protocol: as §1

P.mirabilis 2117 = test: Antibacterial spectrum (MIC), agar dilution; format: cell-based; details: Proteus mirabilis, read-out: MIC
Protocol: as §1

P.vulgaris 1028 = test: Antibacterial spectrum (MIC), agar dilution; format: cell-based; details: Proteus vulgaris, read-out: MIC
Protocol: as §1

S.agalactiae QK44 = test: Antibacterial spectrum (MIC), agar dilution; format: cell-based; details: Streptococcus agalactiae, read-out: MIC
Protocol: as §1

S.aureus 6538 = test: Antibacterial spectrum (MIC), agar dilution; format: cell-based; details: Staphylococcus aureus, read-out: MIC
Protocol: as §1

S.aureus 734 MRSA = test: Antibacterial spectrum (MIC), agar dilution; format: cell-based; details: Staphylococcus aureus, read-out: MIC
Protocol: as §1

S.marcescens 69438 = test: Antibacterial spectrum (MIC), agar dilution; format: cell-based; details: Serratia marcescens, read-out: MIC
Protocol: as §1

S.pneumoniae Q19 = test: Antibacterial spectrum (MIC), agar dilution; format: cell-based; details: Streptococcus pneumoniae, read-out: MIC
Protocol: as §1

S.pyogenes B15 = test: Antibacterial spectrum (MIC), agar dilution; format: cell-based; details: Streptococcus pyogenes, read-out: MIC
Protocol: as §1

S.viridans group 016 = test: Antibacterial spectrum (MIC), agar dilution; format: cell-based; details: Streptococcus viridans, read-out: MIC
Protocol: as §1

X.maltophilia 1AC739 = test: Antibacterial spectrum (MIC), agar dilution; format: cell-based; details: Stenotrophomonas maltophilia, read-out: MIC
Protocol: as §1

S.aureus MSSA = test: In vitro activity against selected species (MIC50, MIC90, range); format: cell-based; details: Staphylococcus aureus, medium MHB (Mueller Hinton Broth)
S.pneumoniae PEN-R = test: as above; format: cell-based; details: Streptococcus pneumoniae, medium IsoB + 20% serum
E.faecalis = test: as above; format: cell-based; details: Enterococcus faecalis, medium MHA
Protocol: as §1

S.aureus MRSA = test: as above; format: cell-based; details: Staphylococcus aureus, medium MHA (Mueller Hinton Agar) +NaCl
Protocol: as §1

E.faecium = test: In vitro activity against selected species (MIC50, range); format: cell-based; details: Enterococcus faecium, medium MHA
Protocol: as §1

Escherichia coli 25922 = test: Efficacy against systemic infections (septicemia) in mice; format: in vivo; details: Escherichia coli, 96 h, E.coli 25922, sc 1 and 3 h after challenge, survival day 4
Summary of the method: (§2)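 Swiss albino mice (16–20 g) infected i.p. with 4–10× the 48-h LD50 of each strain; compound given p.o. or s.c. at 1 and 3 h post-challenge, plus 5 h for P. aeruginosa BA. Five mice per group; ED50 (mg/kg) by probit analysis of day-4 survival.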

S.aureus Smith = test: as above; format: in vivo; details: Staphylococcus aureus, 96 h, sc 1 and 3 h after challenge, survival day 4
Summary of the method: as §2

Compound: Nc1nc(/C(=N/O)C(=O)N[C@@H]2C(=O)N3C(C(=O)O)=C(/C=C4\CCN(CCF)C4=O)CS[C@H]23)cs1 [F, [6R-[3(E),6α,7β(Z)]]-7-[[(2-Amino-4-thiazolyl)(hydroxyimino)-acetyl]amino] -3-[[1-(2-fluoroethyl)-2-oxo-3-pyrrolidinylidene]methyl] -8-oxo-5-this-1-azabicyclo[4.2.0]-oct-2-ene-2-carboxylic acid]
- MIC (Acinetobacter sp.51-156): 16 µg/mL (≈ 31.3 µM)
- MIC (C.freundii 43): 4 µg/mL (≈ 7.84 µM)
- MIC (C.freundii 902): 0.12 µg/mL (≈ 0.235 µM)
- MIC (E.cloacae 908R): 16 µg/mL (≈ 31.3 µM)
- MIC (E.cloacae 908SSi): 0.12 µg/mL (≈ 0.235 µM)
- MIC (E.coli 25922): ≤ 0.06 µg/mL
- MIC (E.faecalis 6): 1 µg/mL (≈ 1.96 µM)
- MIC (H.influenzae 1): 0.12 µg/mL (≈ 0.235 µM)
- MIC (K.pneumoniae 418): ≤ 0.06 µg/mL
- MIC (L.monocytogenes BK23): 2 µg/mL (≈ 3.92 µM)
- MIC (M.catarrhalis RA21): 8 µg/mL (≈ 15.7 µM)
- MIC (M.morganii 6H-137): ≤ 0.06 µg/mL
- MIC (N.meningitidis 69480): ≤ 0.06 µg/mL
- MIC (P.aeruginosa 27853): 32 µg/mL (≈ 62.7 µM)
- MIC (P.mirabilis 2117): ≤ 0.06 µg/mL
- MIC (P.vulgaris 1028): 2 µg/mL (≈ 3.92 µM)
- MIC (S.agalactiae QK44): 0.12 µg/mL (≈ 0.235 µM)
- MIC (S.aureus 6538): 0.5 µg/mL (≈ 0.979 µM)
- MIC (S.aureus 734 MRSA): 8 µg/mL (≈ 15.7 µM)
- MIC (S.marcescens 69438): 0.5 µg/mL (≈ 0.979 µM)
- MIC (S.pneumoniae Q19): ≤ 0.06 µg/mL
- MIC (S.pyogenes B15): ≤ 0.06 µg/mL
- MIC (S.viridans group 016): 0.5 µg/mL (≈ 0.979 µM)
- MIC (X.maltophilia 1AC739): > 32 µg/mL
- MIC (S.aureus MSSA; MIC range): 0.5 to 1 µg/mL (≈ 0.979 to 1.96 µM)
- MIC50 (S.aureus MSSA): 0.5 µg/mL (≈ 0.979 µM)
- MIC90 (S.aureus MSSA): 1 µg/mL (≈ 1.96 µM)
- MIC (S.pneumoniae PEN-R; MIC range): 0.12 to 0.5 µg/mL
- MIC50 (S.pneumoniae PEN-R): 0.5 µg/mL
- MIC (E.faecalis; MIC range): 0.5 to 2 µg/mL (≈ 0.979 to 3.92 µM)
- MIC50 (E.faecalis): 1 µg/mL (≈ 1.96 µM)
- MIC90 (E.faecalis): 2 µg/mL (≈ 3.92 µM)
- MIC (S.aureus MRSA; MIC range): 8 to 16 µg/mL (≈ 15.7 to 31.3 µM)
- MIC50 (S.aureus MRSA): 8 µg/mL (≈ 15.7 µM)
- MIC90 (S.aureus MRSA): 8 µg/mL (≈ 15.7 µM)
- MIC (E.faecium; MIC range): 1 to 16 µg/mL (≈ 1.96 to 31.3 µM)
- MIC50 (E.faecium): 2 µg/mL (≈ 3.92 µM)
- ED50 (Escherichia coli 25922): < 0.1 mg/kg
- ED50 (S.aureus Smith): < 1 mg/kg
